The source made the active and inactive calls. The calls are words filed in the database; no cut-off is given here.
How the values were obtained:
[1] = Cytotoxicity against Mus musculus (mouse) EAC assessed as cell viability by trypan blue exclusion assay; assay type: functional, Ehrlich
[2] = Antitumor activity against Mus musculus (mouse) EAC xenografted in Mus musculus (mouse) assessed as normalization of hemoglobin level at 50 to 250 mg/kg/day, ip measured on day 14 (reference value: 8.7 g/dl); assay type: functional, Ehrlich; conditions: route intraperitoneal
[3] = test system: Ehrlich; test: Antitumor activity against Mus musculus (mouse) EAC xenografted in Mus musculus (mouse) assessed as normalization of WBC level at 50 to 250 mg/kg/day, ip measured on day 14 relative to untreated control; assay type: functional, organism-based
[4] = Antitumor activity against Mus musculus (mouse) EAC xenografted in Mus musculus (mouse) assessed as increase in mean survival time at 50 to 250 mg/kg/day, ip after 9 days (reference value: 9.1 days); assay type: functional, Ehrlich; conditions: route intraperitoneal
[5] = Antitumor activity against Mus musculus (mouse) EAC xenografted in Mus musculus (mouse) assessed as normalization of hematocrit at 50 to 250 mg/kg/day, ip measured on day 14 (reference value: 35.5%); assay type: functional, Ehrlich; conditions: route intraperitoneal
[6] = test system: Mus musculus; test: Toxicity in Mus musculus Swiss Albino (mouse) xenografted with Mus musculus (mouse) EAC assessed as increase in body weight at 50 to 250 mg/kg/day, ip measured on day 14; assay type: organism-based; set-up: route intraperitoneal; conditions: in vivo
[7] = Antitumor activity against Mus musculus (mouse) EAC xenografted in Mus musculus (mouse) assessed as decrease in tumor number at 50 to 250 mg/kg/day, ip measured on day 14 by Giemsa staining (reference value: 220 million/ml); assay type: functional, Ehrlich; conditions: route intraperitoneal
[8] = Antitumor activity against Mus musculus (mouse) EAC xenografted in Mus musculus (mouse) assessed as normalization of hemoglobin level at 20 mg/kg/day, ip measured on day 14 (reference value: 8.7 g/dl); assay type: functional, Ehrlich; conditions: route intraperitoneal
[9] = test system: Ehrlich; test: Antitumor activity against Mus musculus (mouse) EAC xenografted in Mus musculus (mouse) assessed as normalization of WBC level at 20 mg/kg/day, ip measured on day 14 relative to untreated control; assay type: functional, organism-based
[10] = Antitumor activity against Mus musculus (mouse) EAC xenografted in Mus musculus (mouse) assessed as increase in mean survival time at 20 mg/kg/day, ip after 9 days (reference value: 9.1 days); assay type: functional, Ehrlich; conditions: route intraperitoneal
[11] = Antitumor activity against Mus musculus (mouse) EAC xenografted in Mus musculus (mouse) assessed as decrease in tumor number at 20 mg/kg/day, ip measured on day 14 by Giemsa staining (reference value: 220 million/ml); assay type: functional, Ehrlich; conditions: route intraperitoneal
[12] = test system: Mus musculus; test: Toxicity in Mus musculus Swiss Albino (mouse) xenografted with Mus musculus (mouse) EAC assessed as increase in body weight at 20 mg/kg/day, ip measured on day 14; assay type: organism-based; set-up: route intraperitoneal; conditions: in vivo
[13] = Antitumor activity against Mus musculus (mouse) EAC xenografted in Mus musculus (mouse) assessed as normalization of hematocrit at 20 mg/kg/day, ip measured on day 14 (reference value: 35.5%); assay type: functional, Ehrlich; conditions: route intraperitoneal

Compound: COc1cc(/C=C/c2cc(/C=C/c3ccc(O)c(OC)c3)n(NN)n2)ccc1O
- ED25 [1]: 22.2 mM

Compound: COc1cc(/C=C/c2cc(/C=C/c3cc(/N=N/c4ccc(Cl)cc4)c(O)c(OC)c3)n(CO)n2)cc(/N=N/c2ccc(Cl)cc2)c1O
- ED25 [1]: 3.6 mM

Compound: COc1cc(/C=C/c2cc(/C=C/c3ccc(O)c(OC)c3)[nH]n2)ccc1O [CURCUMIN PYRAZOLE]
- Activity [2]: 9.4 g/dL
- Activity [3]: Active
- ED25 [1]: 66.7 mM
- MST [4]: 14.6 days
- Activity [5]: 41%
- Activity [6]: Toxic
- Activity [7]: 169.6 ×10⁶ /ml

Compound: COc1cc(C2C=C(C(=NNc3ccc([N+](=O)[O-])cc3)C3=CC(c4ccc(O)c(OC)c4)ON3)NO2)ccc1O (stereo not drawn)
- ED25 [1]: 5.3 mM

Compound: COc1cc(/C=C/C(=O)CC(=O)/C=C/c2ccc(O)c(OC)c2)ccc1O [CURCUMIN]
- ED10 [1]: 3.4 mM
- ED25 [1]: 4.8 mM

Compound: COc1cc(/C=C/C(=O)/C(=N\Nc2ccc([N+](=O)[O-])cc2)C(=O)C(Br)C(Br)c2ccc(O)c(OC)c2)ccc1O (stereo not drawn)
- ED25 [1]: 3.2 mM

Compound: COc1cc(C2CC(C(=NNc3ccc([N+](=O)[O-])cc3)C3=NC(=S)NC(c4ccc(O)c(OC)c4)C3)=NC(=S)N2)ccc1O (stereo not drawn)
- ED25 [1]: 4.8 mM

Compound: COc1cc(C2CC(C(=NNc3ccc([N+](=O)[O-])cc3)C3=NNC(c4ccc(O)c(OC)c4)C3)=NN2)ccc1O (stereo not drawn)
- ED25 [1]: 38.9 mM

Compound: O=c1[nH]cc(F)c(=O)[nH]1 [FLUOROURACIL]
- Activity [8]: 10 g/dL
- Activity [9]: Active
- MST [10]: 16.7 days
- Activity [11]: 123 ×10⁶ /ml
- Activity [12]: Toxic
- Activity [13]: 42.3%

Compound: COc1ccc(NN=C(C(=O)/C=C/c2ccc(O)c(OC)c2)C(=O)/C=C/c2ccc(O)c(OC)c2)cc1
- ED25 [1]: 3.4 mM

Compound: COc1cc(/C=C/C(=O)C(=NNc2ccc(Cl)cc2)C(=O)/C=C/c2ccc(O)c(OC)c2)ccc1O
- ED25 [1]: 3.2 mM

Compound: COc1cc(/C=C/c2cc(/C=C/c3ccc(O)c(OC)c3)n(N=O)n2)ccc1O
- ED25 [1]: 6.7 mM

Compound: COc1cc(/C=C/C(=O)C(=NNc2ccc([N+](=O)[O-])cc2)C(=O)/C=C/c2ccc(O)c(OC)c2)ccc1O
- ED10 [1]: 2.5 mM
- ED25 [1]: 2.8 mM

Compound: COc1cc(/C=C/C(=O)C(=NNc2ccc(C)cc2)C(=O)/C=C/c2ccc(O)c(OC)c2)ccc1O
- ED10 [1]: 2.4 mM

Compound: COc1cc(/C=C/C(=O)/C(=N\Nc2ccc([N+](=O)[O-])cc2)C2=NC(=S)NC(c3ccc(O)c(OC)c3)C2)ccc1O (stereo not drawn)
- ED10 [1]: 2.9 mM
